{
  "source": "patent EP2118065B1",
  "about": "“Substituted 1H-benz[de]isoquinoline-1,3-diones” (priority 2007, dated 2008)",
  "key": {"MOLT-4 cells [1]": {"tested_on": "MOLT-4 cells", "assay": "Annexin V-FITC/PI flow cytometric analysis of apoptosis", "type": "cell-based, Human", "conditions": "6 hrs", "procedure": "Events of apoptosis were analyzed using Annexin V-FITC Apoptosis Detection Kit (A 2214 Sigma Aldrich, USA). Human leukemia Cells (MOLT-4, 1x10^6 cells/ml) in 6-well plate were treated with Compound 3f (3 and 5µg/ml), camptothecin (5µM) and incubated for 6 hrs. After incubation, the cells were centrifuged, rinsed with PBS twice and re-suspended in binding buffer (10 mM HEPES/NaOH, pH 7.5 containing 0.14M NaCl and 25 mM CaCl2). An aliquot (500 µl) of suspension was stained with of Annexin V-FITC (5 µl) and Propidium Iodide (10 µl). The cells were stored for 10 minutes at room temperature in the dark and then analyzed by BD-LSR flow cytometer (Becton Dickinson, USA) at two wavelengths to measure fluorescence for of Annexin V & PI binding at 515 and 639 nm."}, "caspase-6": {"tested_on": "caspase-6", "assay": "Caspase-6 colorimetric assay in MOLT-4 cells", "type": "cell-based, Human", "conditions": "5 µg/ml, 24 hrs", "procedure": "Caspase 3 activity was measured by using caspase-3 colorimetric Assay kit (R&D Systems USA). Briefly, MOLT-4 (∼2x10^6cells) were treated with Compound 3f, camptothecin (5µM) and staurosporine (1µM) for 24h, and then cell centrifuged and pellet was lysed using 50µL cell lysis buffer. Cell lysates were mixed with 10µL of dithiothreitol (DTT) and 50µL reaction buffer (2X) containing 5 µL DEVD-pNA, a caspase-3 substrate, and incubated upto 24 hr at 37°C. Additional controls were included in this assay containing no cell lysate without substrate Enzyme-catalyzed release of pNA was monitored using a microplate reader at 405 nm (Fig. 2). Likewise, Caspase 6 activity was also measured using caspase-6 colorimetric Assay kit (R&D Systems USA). However, the enzyme and enzyme substrate (VEID-pNA) were different (Fig. 3). Treatment of the cells with Compound 3f induced caspase-3/6 activities. […] (Fig 2)."}, "MOLT-4 cells [2]": {"tested_on": "MOLT-4 cells", "assay": "Flow cytometric DNA cell cycle analysis (sub-G1 fraction)", "type": "cell-based, Human", "conditions": "24 hr", "procedure": "Effect of DNA content by cell cycle phase distribution was assessed using MOLT-4 cells. […] The incubation period was 3 hrs in case of camptothecin and 24 hrs. in rest of the treatments. The cells were then washed twice with ice-cold PBS, harvested, fixed with ice-cold PBS in 70% ethanol, and stored at -20 °C for 30 min. After fixation, the cells were incubated with RNase A (0.1 mg/ml) at 37°C for 30 min, stained with propidium iodide (50 µg/ml) for 30 min on ice in dark, and then measured for DNA content using BD-LSR Flow cytometer (Becton Dickinson, USA) equipped with electronic doublet, discrimination capability using blue (488nm) excitation from argon laser. Data were collected in list mode on 10,000 events for FL2-A vs. FL2-W and analyzed using Mod Fit 2.0 software (Fig 4). […] The sub-G1 fractions for control and camptothecin were 0.64 (Fig. 4A) and 11.92 % (Fig. 4B)."}, "S-180": {"tested_on": "S-180", "assay": "In vivo anticancer activity: increase in median survival time", "set-up": "species or system Swiss albino male mice", "conditions": "S-180, 7 injns."}, "MOLT-4 cells [3]": {"tested_on": "MOLT-4 cells", "assay": "Light and transmission electron microscopy of apoptosis", "type": "cell-based, Human", "procedure": "Cell culture and treatment: Human T lymphoblast; acute lymphoblastic leukemia line MOLT-4 was procured from NCCS, Pune, India. The cells were cultured in RPMI-1640 medium supplemented with 10% FCS, 100 units penicillin and 100 µg streptomycin per ml. Cells were grown in CO2 incubator (SHEL-LAB, USA) at 37° C, 90% humidity and 5% CO2 gas environment and were treated during sub-confluent stage with Compound 3f dissolved in DMSO at the concentration of 1, 5 and 10µM while control cells received only the vehicle (DMSO < 0.5%).\nLight and Transmission Electron Microscopy: MOLT-4 control, Compound 3f treated cells at different time intervals were washed in phosphate buffered saline, centrifuged at 1500 rpm for ten minutes and the pellets were divided into 1mm^3 pieces and fixed immediately in 2.5% glutaraldehyde in 0.1M phosphate buffer (pH 7.2) for 2 hr at 4°C, post-fixed with 1% OsO4 in the same buffer for 2 hr, dehydrated with acetone, cleared in propylene oxide and embedded in Epon-812^6 [Hayat, M. A. (1981) Principles and Techniques of Electron Microscopy. Biological Applications Vol. 1. Edward Arnold Publishers, London, U.K.] Semithin (1µm) sections were cut, stained with toluidine blue and studied under Olympus Research Microscope (VANOX). The photography was done using Olympus Digital Camera (C4000).\nUltrathin sections of silver colour (60-90 nm) were cut on a LKB ultramicrotome (Ultrotome-IV, mounted on copper grids and stained with uranyl acetate and lead citrate. The sections were viewed and photographed in a JEOL-100CXII electron microscope at 60 kV.\nDetection of apoptosis in tissue sections. Cell Tissue Res. 301: 19-31] at different time intervals to study the mechanism of cell death. […] Compound 3f treated MOLT-4 cells, the condensation of the nuclear material, with a marked accumulation of densely stained chromatin was seen. In majority of the treated cells the chromatin was seen typically at the edge of the nucleus. This was accompanied by cell shrinkage and cytoplasmic vacuoles. The disintegration of the nucleus into smaller fragments was also seen (Fig. 7B). […]"}, "HL-60 human leukemia": {"tested_on": "HL-60 human leukemia", "assay": "MTT in vitro cytotoxicity", "conditions": "Homo sapiens, HL-60, 96 h, read-out: IC50 value Leukemia HL-60"}, "S-180 cells": {"tested_on": "S-180 cells", "assay": "3H-thymidine and 3H-uridine incorporation in vitro (DNA and RNA synthesis)"}},
  "data": [
    {"smiles": "O=C1c2cccc3c([N+](=O)[O-])ccc(c23)C(=O)N1CCCCl", "note": "[Compound 3f, 6-Nitro-2-[3-(Chloropropyl)]-1H-benz[de]isoquinoline-1,3-dione]", "values": [
      {"measurement": "late apoptotic cells (Annexin V^+/PI^+)", "setting": "MOLT-4 cells [1]; 3 µg/ml", "value": 1.05, "unit": "%"},
      {"measurement": "total apoptotic cells", "setting": "MOLT-4 cells [1]; 3 µg/ml", "value": 7.43, "unit": "%"},
      {"measurement": "late apoptotic cells (Annexin V^+/PI^+)", "setting": "MOLT-4 cells [1]; 5 µg/ml", "value": 4.82, "unit": "%"},
      {"measurement": "total apoptotic cells", "setting": "MOLT-4 cells [1]; 5 µg/ml", "value": 18.44, "unit": "%"},
      {"measurement": "Caspase-6 activity", "setting": "caspase-6", "value": "maximum at 5 µg/ml for 24 hrs"},
      {"measurement": "sub-G1 fraction (apoptotic)", "setting": "MOLT-4 cells [2]; 1.5 µg/ml", "value": 4.52, "unit": "%"},
      {"measurement": "sub-G1 fraction (apoptotic)", "setting": "MOLT-4 cells [2]; 5 µg/ml", "value": 5.86, "unit": "%"},
      {"measurement": "MST", "setting": "S-180; 30 mg/kg i.p., days 1-7", "value": 25.0, "unit": "days"},
      {"measurement": "MST", "setting": "S-180; 60 mg/kg i.p., days 1-7", "value": 29.0, "unit": "days"},
      {"measurement": "MST", "setting": "S-180; 60 mg/kg i.p., days 5-11", "value": 21.0, "unit": "days"},
      {"measurement": "apoptotic cells by light microscopy", "setting": "MOLT-4 cells [3]; 1µM", "value": "no apoptotic cells were observed"},
      {"measurement": "apoptotic cells by light microscopy", "setting": "MOLT-4 cells [3]; 5µM, 24 - 48 hr", "value": "only a-few apoptotic cells were observed"},
      {"measurement": "apoptotic cells by light microscopy", "setting": "MOLT-4 cells [3]; 10µM, 36 hrs", "value": "seen in majority of cells"},
      {"measurement": "IC50", "setting": "HL-60 human leukemia", "value": 0.3, "unit": "µM"},
      {"measurement": "inhibition at 8 µM", "setting": "S-180 cells; Mus musculus, S-180, read-out: DNA synthesis inhibition (3H-thymidine uptake)", "value": 90, "unit": "%"},
      {"measurement": "RNA synthesis inhibition (3H-uridine uptake)", "setting": "S-180 cells; S-180 cells, 8 µM, 1 hr incubation, with respect to control", "value": 80, "unit": "%"}
    ]}
  ]
}
